# Reference: patent US20250041305A1, “PHARMACEUTICAL COMPOSITION OF SEPIAPTERIN” (PTC Therapeutics, Inc., priority 2021, published 2025)
# Assay: Roller compaction processability observation and in-process data
# Settings: unformulated
# From the text: Formulations were manufactured at 100 g scale by roller compaction using the compositions as described in Table 17. The formulations were designed to evaluate the effect of formulation variables including drug loading, ratios of diluents and levels of other excipients on the processability, as shown in Table 17.
# In the tables above, BD refers to Bulk Density, DT refers to Disintegration time, HR refers to Hausner ratio and TD refers to tapped density. Disintegration time is for a 0.5-inch ribbon. The plus signs in the table refer to the following observed characteristics: “+” is soft, “++” is medium hard, “+++” is hard, and “++++” is very hard.
# To improve the flow properties of the sepiapterin composition of the invention, a dry granulation approach was selected. The manufacturing process included preblending, roller compaction followed by milling, final blending, and sachet filling. The batch analyses data from the selected manufacturing process yielded acceptable drug product within the specification limit. […]
compound,measurement,value
C[C@H](O)C(=O)C1=Nc2c(nc(N)[nH]c2=O)NC1 [sepiapterin],bulk density,low bulk density
same,flow characteristics,poor flow characteristics
